Data taken from patent publication US20030054332A1, “Markers for evaluating estrogenic activity” (priority 2001, published 2003).

Key:
[1] = tested on: VEGF mRNA in VE-ERα cells; test: VEGF mRNA expression in VE-ERα cells by RNAse protection analysis; format: cell-based, human; settings: VE-ERα cells treated with estrogen; RNAse protection analysis (FIG. 1, 100 nM)
Protocol: Estrogen receptor α (ERα)-enhanced vascular endothelial cells were prepared by infecting primary vascular endothelial cells with a retrovirus expressing human papillomavirus E6/E7, which leads to cellular immortalization. The retrovirus expression vector LXSN16E6E7 contains the immortalizing oncogenes E6 and E7 from human papilloma virus type 16 and a neomycin resistance gene. (Halbert, C. L., Demers, F. W., and Galloway, D. A. 1991. J Virol. 65: 473-478 (1)). This vector was transfected into PA317 cells, an amphotrophic packaging cell line, by calcium phosphate precipitation. Stably clonal lines were established by G418 selection. A negative control line expressing the empty retrovirus LXSN was established. Viruses produced by the clonal lines of PA317 were used to infect second passage primary human aortic endothelial cells obtained from Cell Applications, Inc., San Diego, Calif. Following infection and selection with G418, the LXSN infected cells ceased growth after approximately 7 passages where the LXSN16E6E7 infected cells were growth extended beyond 20 passages.
The cells expressed the expected endothelial markers. The levels of ERα were increased by infection of the cells with a retrovirus that expresses recombinant ERα (Green, S. et al, Nature 1986 320: 134-137). […]

[2] = tested on: VE-ERα cells; test: Incyte UniGEM estrogen regulated gene profile of VE-ERα cells; format: cell-based, human; settings: VE-ERα cells treated for 6 hours vs ethanol
Protocol: The Incyte UniGEM technology was used to survey a large panel of genes and to establish the estrogen regulated gene profile of the VE-ERα cells. VE-ERα cells were treated for 6 hours with 17-β estradiol or vehicle control (ethanol). Poly (A) RNA was isolated and this RNA was used to synthesize Cy3 or Cy5 labeled cDNA for simultaneous probing of Incyte UniGem V. Reciprocal labeling was done and two UniGems were probed (for one GEM the estradiol probe was labeled with Cy3 and ethanol probe with Cy5 and this labeling was reversed for the second GEM). UniGem V contains approximately 8500 human sequences including both known genes and ESTs. More than 20 genes were identified which were regulated more than 2 fold on both UniGEMs (Table I, indicated as UniGem. The sequence indicated in Table I with RF were identified by RNA fingerprinting, a more stringent version of differential display. RNA fingerprinting is based upon the use of arbitrary primers and primer combinations to carry out PCR amplifications from cDNA populations derived from cells or tissues of interest. The process generates a series of radioactively-labeled fragments which can be resolved by PAGE and visualized by autoradiography. (Mathieu-Daude, et al. Methods Enzymol 1999;303:309; Stone, et al., Nucleic Acids Res 1994 Jul 11;22(13):2612-8.)

[3] = tested on: prostacyclin I2 synthase in VE-ERα cells; test: Estrogen treatment time course, RNase protection analysis of prostacyclin I2 synthase in VE-ERα cells; format: cell-based, human; settings: at 24 hours
Protocol: This step is not necessary with genes identified by the UniGem where an estrogen treatment time course was performed. RNA was isolated and RNase protection analysis was used to determine estrogen responses (FIG. 2). All 20 of the genes examined were confirmed to be regulated to a higher fold modulation at 24 hours than the 6 hours used for the UniGem experiment.
The genes identified were relevant genes for vascular endothelial cells and in some cases consistent with the known effects of estrogen in the cardiovascular system. […] This enzyme is required for that last step in the synthesis of prostacyclin (PGI2). […] Another relevant gene was natriuretic peptide receptor B (NPR-B) which is the receptor for C-type natriuretic peptide (CNP), an endothelium dependent vasodilator.

[4] = tested on: MCF-7 cells; test: Estrogen regulation of marker genes in MCF-7 cells; format: cell-based
[5] = tested on: cyclin A1 in ERα-enhanced vascular endothelial cells; test: Cyclin A1 RNase protection, ERα-enhanced vascular endothelial cells; format: cell-based, human; settings: for cyclin A1 mRNA (in words): ERα-enhanced cells, 100 nM E2, 1 μM ICI 164384, 10 nM DES
Protocol: RNA was prepared using standard methods and RNase protection experiments were performed to evaluate the time course of cyclin A1 induction.
(§1) In a similar experiment, RNase protection assays were performed using estrogen receptor α- and estrogen receptor β-enhanced vascular endothelial cells. […] The results are presented in FIGS. 4A and 5B, which show the levels of various cyclins in estrogen receptor α- and estrogen receptor β-enhanced cells, respectively. Arrows indicate mRNA for each indicated cyclin. […] Cyclin A1 is the only cyclin in the panel increased by estradiol treatment.
(§2) Cyclin A1 expression and the effect of estradiol on expression in a number of immortalized and primary cells lines was further evaluated as described above.

[6] = tested on: cyclin A1 in ERβ-enhanced vascular endothelial cells; test: Cyclin A1 RNase protection, ERβ-enhanced vascular endothelial cells; format: cell-based, human; settings: 100 nM E2, 1 μM ICI 164384, 10 nM DES
Protocol: as §1, §2

[7] = tested on: cyclin A1 in Vascular endothelial cells; test: Cyclin A1 expression and induction, vascular endothelial cells; format: cell-based; set-up: key: (+) indicates detectable cyclin A1; (−) indicates no detectable cyclin A1 expression; settings: immortalized human cells
Description: as §2

[8] = tested on: cyclin A1 in Primary vascular endothelial cells; test: Cyclin A1 expression and induction, primary vascular endothelial cells; format: cell-based; set-up: key: (+) indicates detectable cyclin A1; (−) indicates no detectable cyclin A1 expression
Description: as §2

[9] = tested on: cyclin A1 in MCF-7 (mammary cancer cell line); test: Cyclin A1 expression and induction, MCF-7; format: cell-based; set-up: key: (+) indicates detectable cyclin A1; (−) indicates no detectable cyclin A1 expression
Description: as §2

[10] = tested on: cyclin A1 in Endometrial epithelial cells; test: Cyclin A1 expression and induction, endometrial epithelial cells; format: cell-based; set-up: key: (+) indicates detectable cyclin A1; (−) indicates no detectable cyclin A1 expression; settings: immortalized human cells
Description: as §2

[11] = tested on: cyclin A1 in Osteoblasts; test: Cyclin A1 expression and induction, osteoblasts; format: cell-based; set-up: key: (+) indicates detectable cyclin A1; (−) indicates no detectable cyclin A1 expression; settings: immortalized human cells
Description: as §2

[12] = tested on: cyclin A1 in Vascular smooth muscle cells; test: Cyclin A1 expression and induction, vascular smooth muscle cells; format: cell-based; set-up: key: (+) indicates detectable cyclin A1; (−) indicates no detectable cyclin A1 expression; settings: immortalized human cells
Description: as §2

[13] = tested on: cyclin A1 in Primary vascular smooth muscle cells; test: Cyclin A1 expression and induction, primary vascular smooth muscle cells; format: cell-based; set-up: key: (+) indicates detectable cyclin A1; (−) indicates no detectable cyclin A1 expression
Description: as §2

[14] = tested on: estrogen-regulated genes in VE-ERα cells; test: Multigene RNase protection assay (RPA) with VE-ERα cells; format: cell-based, human; settings: for induction of expression of estrogen-regulated genes / effect on basal gene expression: 5 dose 0.1 nM-1000 nM for 24 hours
Description: Another preferred assay is an RNase protection assay (RPA), which can be used to examine a panel of genes identified as estrogen-regulated in VE-ERα cells. The RPA is described in Gilman, 1993, In Current Protocols in Molecular Biology, Vol. 1 (Ausubel, F. M., R. Brent, R, E. Kingston, D. D. Moore, J. G. Seidman, J. A. Smith and K. Stuhl, eds.) pp. 4.7.1-4.7.8, John Wiley and Sons, Inc., New York, incorporated herein by reference in its entirety. Within this assay, which may be performed according to standard protocols, multiple probes can be used in a single reaction that requires as little as 1 μg of total RNA, resulting in high information content and a molecule profile for each compound on ERα. regulated gene expression in vascular endothelial cells. The RPA assay is very sensitive and is therefore able to detect low copy messages and distinguish low fold modulations typical of estrogen. This approach has a number of advantages over a reporter assay. The endogenous genes in the multigene assay will contain all endogenous gene regulatory elements and will not be restricted to activation occurring through an ERE element. Since VE-ERα cells are human cells that have been characterized and determined to maintain endothelial specific phenotypic markers and functions, tissue selective ER regulation can be investigated.
An RNase protection assay (RPA) was used to examine a panel of genes identified as estrogen-regulated in VE-ERα cells.
(§3) In a further experiment, compounds known to have estrogen-like activity based on ER binding and ERE transactivation (ERE luciferase reporter in Chinese hamster ovary cells expressing transfected ERα) were evaluated. […] In order to confirm that these active compounds were working in an ER dependent manner, VE103-ERα cells were treated with a single dose of compound and increasing doses of ICI 164,384. […] All results are presented as percent of estrogen. PGI2 synthase numbers were based on EC50 from a 5-point dose response like that shown for estrogen in FIG. 5.

[15] = tested on: ERE luciferase reporter in Chinese hamster ovary cells expressing transfected ERα; test: ERE transactivation (ERE luciferase reporter in Chinese hamster ovary cells expressing transfected ERα); format: cell-based
Protocol: as §3

Q: `C[C@]12CC[C@@H]3c4ccc(O)cc4CC[C@H]3[C@@H]1CC[C@@H]2O` [17-β-estradiol] was tested. Which “expression of vascular endothelial growth factor (VEGF) mRNA” value [1] did it give?
A: increased three fold

Q: And the “regulation of more than 20 genes on both UniGEMs” value [2]?
A: more than 2 fold

Q: And the “prostacyclin I2 synthase upregulation” value [3]?
A: 4 fold

Q: And the “regulation of ATP sulfurylase/APS kinase, podocalyxin” value [4]?
A: found to be regulated by estrogen

Q: And the regulation of clusterin [4]?
A: not regulated by estrogen in a similar fashion

Q: And the “regulation of prostacyclin I2 synthase and natriuretic peptide receptor B (NPR-B)” value [4]?
A: not regulated by estrogen

Q: And the “time to increase of cyclin A1 mRNA” value ([5]; 100 nM 17-β-estradiol vs 0.1% ethanol)?
A: ≤ 3 h

Q: What about the “cyclin A1 mRNA (in words)” value [5] of the same molecule?
A: induction of cyclin A1 mRNA can occur

Q: And the “cyclin A1 mRNA (in words)” value [6]?
A: induction of cyclin A1 mRNA can occur

Q: And the “Cyclin A1 expression, Estradiol” value [7]?
A: +

Q: What about the “Cyclin A1 expression, Estradiol” value [8] of the same molecule?
A: +

Q: What about the “Cyclin A1 expression, Estradiol” value [9] of the same molecule?
A: −

Q: What about the “Cyclin A1 expression, Estradiol” value [10] of the same molecule?
A: +

Q: What about the “Cyclin A1 expression, Estradiol” value [11] of the same molecule?
A: −

Q: What about the “Cyclin A1 expression, Estradiol” value [12] of the same molecule?
A: −

Q: What about the “Cyclin A1 expression, Estradiol” value [13] of the same molecule?
A: −

Q: What about the “induction of expression of estrogen-regulated genes” value (from here on “induction”) [14] of the same molecule?
A: induced expression

Q: And the “PG I2 synthase” value ([14]; VE-ERα Cells, based on EC50 from a 5-point dose response)?
A: 100% of estrogen

Q: What about the ERE transactivation [15] of the same molecule?
A: 100% of estrogen

Q: Which results are given for `CC/C(=C(/CC)c1ccc(O)cc1)c1ccc(O)cc1` [DES, diethylstilbestrol]?
A: cyclin A1 mRNA (in words) [5]: mimics the estradiol effect; cyclin A1 mRNA (in words) [6]: mimics the estradiol effect

Q: `CCCCN(C)C(=O)CCCCCCCCCC[C@@H]1Cc2cc(O)ccc2[C@H]2CC[C@]3(C)[C@@H](O)CC[C@H]3[C@H]12` [ICI 164,384] was tested. Which “cyclin A1 mRNA (in words)” value [5] did it give?
A: inhibits this response

Q: And the “cyclin A1 mRNA (in words)” value [6]?
A: inhibits this response

Q: What about the “effect on basal gene expression” value [14] of the same molecule?
A: lowered basal expression of some genes at higher concentrations

Q: What about the “induction” value [14] of the same molecule?
A: showed no induction of gene expression

Q: And the “inhibition of gene activation by active compounds” value ([14]; VE103-ERα cells, single dose of compound and increasing doses of ICI 164,384)?
A: able to inhibit competitively the activation of these genes

Q: Which results are given for `O=C(c1ccc(OCCN2CCCCC2)cc1)c1c(-c2ccc(O)cc2)sc2cc(O)ccc12` [Raloxifene]?
A: effect on basal gene expression [14]: repressing rather than inducing gene expression; induction of expression of estrogen-regulated genes [14]: showed no clear induction of any of the genes

Q: For `CC/C(=C(\c1ccccc1)c1ccc(OCCN(C)C)cc1)c1ccccc1` [tamoxifen], which “induction” value [14] is on record?
A: showed no clear induction of any of the genes
